From patent publication US20260159536A1, “AKR1C3-ACTIVATED DNA ALKYLATING AGENT, AND MEDICAL APPLICATION THEREOF” (ASCENTAWITS PHARMACEUTICALS, LTD., priority 2021, published 2026)
Several values for one entry are separate records, joined by “and”; a condition that tells them apart may be missing. Equal entries are not always repeated.

Experiments:
[1] = Blood-brain barrier assay of Compound A (plasma and brain concentration, PK); type: in vivo, CD-1 mice
Protocol: Three CD-1 mice were administered 1 mg/kg of the test Compound A intravenously at each time point. Blood and brain tissue were taken at 5 min, 15 min, 1 h, 2 h, 4 h and 8 h after administration.
The PK (Pharmacokinetic) parameters obtained from the above assays were listed as follows, as shown in Table 33 and Table 34. • PK parameters, pharmacokinetic parameters. • T1/2, half-life. • Cl-obs, plasma clearance. • C0, starting concentration. • AUClast, area under the concentration-time curve from start of administration time to the last point. • AUCInf, area under the concentration-time curve from start of administration to the time at infinity. • Tmax, time to maximum observed plasma concentration. • Cmax, concentration to maximum observed plasma concentration. • MRTlnf-obs, represents the mean residence time from the start of administration to the time of theoretical extrapolation to infinity. • AUClnf Ration (Brain/Plasma), the ratio of the area under the concentration-time curve of serum and brain tissue from the start of administration to the time at infinity. • Unit, unit. • Mean, average value.

[2] = tested on: human lung cancer NCI-H460 cells; experiment: In vivo pharmacodynamics, NCI-H460 subcutaneous xenograft model; set-up: species or system BALB/c nude mice; conditions: for Relative tumor volume (x ± S) / T/C (%) / TGI (%) / Tumor volume (x ± S): QWx3, i.v.; for Tumor volume (x ± S): in mm³ (unit assumed)
[3] = CD-1, mouse, iv, plasma, 1 mg/kg intravenously, Mean
[4] = IV 1 mg/kg, 0.083 h, individual animals, 1 mg/kg
[5] = IV 1 mg/kg, 0.25 h, individual animals, 1 mg/kg
[6] = IV 1 mg/kg, 1 h, individual animals, 1 mg/kg
[7] = IV 1 mg/kg, 2 h, individual animals, 1 mg/kg
[8] = IV 1 mg/kg, 4 h, individual animals, 1 mg/kg
[9] = IV 1 mg/kg, 8 h, individual animals, 1 mg/kg
[10] = brain tissues, 1 mg/kg intravenously, Mean
[11] = plasma, 1 mg/kg intravenously, Mean

O=[N+]([O-])c1ccc(C(OP(=O)(N2CC2)N2CC2)C(F)(F)F)cc1Oc1ccc(-c2ccc(F)cc2)c(F)c1 (racemic) [Compound A]
AUC(0-inf) [1, 3]: 1200 ng·h/mL | AUC(0-t) [1, 3]: 980 ng·h/mL | C0 [1, 3]: 453 ng/mL | MRT inf ([1]; CD-1, mouse, iv, plasma, 1 mg/kg intravenously, Mean, read-out: MRTInf_obs): 4.37 h | half-life ([1]; CD-1, mouse, iv, plasma, 1 mg/kg intravenously, Mean, read-out: T½ (converted)): 3.64 h | concentration at 0.083 h ([1]; CD-1, mouse, plasma, iv, 1 mg/kg, IV 1 mg/kg, 0.083 h, individual animals, read-out: Plasma concentration): 460 ng/mL | concentration at 0.25 h ([1]; CD-1, mouse, plasma, iv, 1 mg/kg, IV 1 mg/kg, 0.25 h, individual animals, read-out: Plasma concentration): 372 ng/mL | concentration at 1 h ([1]; CD-1, mouse, plasma, iv, 1 mg/kg, IV 1 mg/kg, 1 h, individual animals, read-out: Plasma concentration): 229 ng/mL | concentration at 2 h ([1]; CD-1, mouse, plasma, iv, 1 mg/kg, IV 1 mg/kg, 2 h, individual animals, read-out: Plasma concentration): 150 ng/mL | concentration at 4 h ([1]; CD-1, mouse, plasma, iv, 1 mg/kg, IV 1 mg/kg, 4 h, individual animals, read-out: Plasma concentration): 96.4 ng/mL | concentration at 8 h ([1]; CD-1, mouse, plasma, iv, 1 mg/kg, IV 1 mg/kg, 8 h, individual animals, read-out: Plasma concentration): 48.8 ng/mL | Brain concentration [1, 4]: 540.75 ng/g and 549.95 ng/g | Plasma concentration [1, 4]: 400.55 ng/mL and 416.19 ng/mL | Ratio (Brain/Plasma) [1, 4]: 1.35 and 1.32 | Brain concentration [1, 5]: 489.60 ng/g and 371.38 ng/g | Plasma concentration [1, 5]: 382.24 ng/mL and 384.54 ng/mL | Ratio (Brain/Plasma) [1, 5]: 1.35 and 0.97 | Brain concentration [1, 6]: 188.68 ng/g and 169.85 ng/g | Plasma concentration [1, 6]: 238.84 ng/mL and 249.07 ng/mL | Ratio (Brain/Plasma) [1, 6]: 0.79 and 0.68 | Brain concentration [1, 7]: 94.27 ng/g and 77.50 ng/g | Plasma concentration [1, 7]: 134.42 ng/mL and 131.84 ng/mL | Ratio (Brain/Plasma) [1, 7]: 0.70 and 0.59 | Brain concentration [1, 8]: 68.47 ng/g and 42.73 ng/g | Plasma concentration [1, 8]: 74.91 ng/mL and 63.17 ng/mL | Ratio (Brain/Plasma) [1, 8]: 0.91 and 0.88 | Brain concentration [1, 9]: 21.85 ng/g and 18.85 ng/g | Plasma concentration [1, 9]: 49.05 ng/mL and 29.91 ng/mL | Ratio (Brain/Plasma) [1, 9]: 0.45 and 0.83 | AUCInf [1, 10]: 872.43 ng·h/g | AUClast [1, 10]: 785.85 ng·h/g | Cl_obs [1, 11]: 13.85 mL/min/kg | Vss_obs [1, 11]: 3.63 L/kg | Tumor volume ([2]; 5 mg/kg i.v., Day 7): 144.35 mm^3 | Tumor volume ([2]; 5 mg/kg i.v., Day 10): 183.15 mm^3 | Tumor volume ([2]; 5 mg/kg i.v., Day 14): 198.80 mm^3 | Tumor volume ([2]; 5 mg/kg i.v., Day 17): 228.87 mm^3 | Tumor volume ([2]; 5 mg/kg i.v., Day 21): 253.30 mm^3 | Tumor volume ([2]; 5 mg/kg i.v., Day 24): 310.83 mm^3 | Tumor volume ([2]; 5 mg/kg i.v., Day 28): 279.31 mm^3 | Tumor volume ([2]; 5 mg/kg i.v., Day 31): 337.78 mm^3 | Tumor volume ([2]; 5 mg/kg i.v., Day 35): 452.75 mm^3 | Relative tumor volume (x ± S) ([2]; 5 mg/kg, Day 31): 2.45 ± 0.29 | T/C (%) ([2]; 5 mg/kg, Day 31): 18.51% | TGI (%) ([2]; 5 mg/kg, Day 31): 81.49% | Tumor volume (x ± S) ([2]; 5 mg/kg, Day 31): 337.78 ± 54.37 | Tumor volume ([2]; 10 mg/kg i.v., Day 7): 144.21 mm^3 | Tumor volume ([2]; 10 mg/kg i.v., Day 10): 164.75 mm^3 | Tumor volume ([2]; 10 mg/kg i.v., Day 14): 151.95 mm^3 | Tumor volume ([2]; 10 mg/kg i.v., Day 17): 140.29 mm^3 | Tumor volume ([2]; 10 mg/kg i.v., Day 21): 138.66 mm^3 | Tumor volume ([2]; 10 mg/kg i.v., Day 24): 144.36 mm^3 | Tumor volume ([2]; 10 mg/kg i.v., Day 28): 149.16 mm^3 | Tumor volume ([2]; 10 mg/kg i.v., Day 31): 164.13 mm^3 | Tumor volume ([2]; 10 mg/kg i.v., Day 35): 168.68 mm^3 | Relative tumor volume (x ± S) ([2]; 10 mg/kg, Day 31): 1.18 ± 0.27 | TGI (%) ([2]; 10 mg/kg, Day 31): 91.06% | Tumor volume ([2]; 15 mg/kg i.v., Day 7): 145.41 mm^3 | Tumor volume ([2]; 15 mg/kg i.v., Day 10): 171.22 mm^3 | Tumor volume ([2]; 15 mg/kg i.v., Day 14): 167.54 mm^3 | Tumor volume ([2]; 15 mg/kg i.v., Day 17): 161.80 mm^3 | Tumor volume ([2]; 15 mg/kg i.v., Day 21): 157.66 mm^3 | Tumor volume ([2]; 15 mg/kg i.v., Day 24): 151.20 mm^3 | Tumor volume ([2]; 15 mg/kg i.v., Day 28): 134.73 mm^3 | Tumor volume ([2]; 15 mg/kg i.v., Day 35): 108.70 mm^3 | T/C (%) ([2]; 15 mg/kg, Day 31): 6.94% | Tumor volume (x ± S) ([2]; 15 mg/kg, Day 31): 125.90 ± 25.46 | effect on body weights ([2]; 5, 10, 15 mg/kg, at least 31 days): no significant effect on the body weights
